Measured values from patent US20250099478A1, “PLASMA KALLIKREIN INHIBITORS” (Merck Sharp & Dohme LLC, priority 2022, published 2025).

What was measured:
[1] = biological target: T1, Human plasma kallikrein (Homo sapiens, UniProt P03952); assay: Plasma Kallikrein Assay; assay type: biochemical; details: purified Human plasma kallikrein 0.5 nM, substrate Acetyl-K-P-R-AFC; read-out: PKal IC50
T1 construct: yields a heavy chain (371 amino acids) and a light chain (248 amino acids); purchased Enzyme Research Laboratories
How it was run: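 Purified human plasma kallikrein (0.5 nM) hydrolysing fluorogenic Acetyl-K-P-R-AFC ([…]) in 50 mM HEPES pH 7.4, 150 mM NaCl, 5 mM CaCl2, 0.1% PEG 8000, at rt or 37 °C after enzyme–inhibitor equilibration. IC50 from four-parameter logistic fit; Ki via Cheng–Prusoff.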

[2] = biological target: T2, human factor XIa (Homo sapiens, UniProt P03951); assay: Factor XIa Assay; assay type: biochemical; details: human factor XIa 0.04 nM, substrate GPR-AFC, 25° C.
T2 construct: with human (0.04 nM) factor XIa
T2 sequence (P03951 388-625 limits assumed): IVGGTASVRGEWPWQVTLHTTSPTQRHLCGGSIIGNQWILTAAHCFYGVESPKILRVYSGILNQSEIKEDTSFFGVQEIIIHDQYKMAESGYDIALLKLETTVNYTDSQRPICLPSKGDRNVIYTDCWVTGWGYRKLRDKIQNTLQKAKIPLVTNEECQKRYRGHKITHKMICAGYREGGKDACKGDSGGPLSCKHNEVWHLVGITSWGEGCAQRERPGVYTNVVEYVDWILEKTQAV
T2 sequence (P03951 19-387 partner limits assumed): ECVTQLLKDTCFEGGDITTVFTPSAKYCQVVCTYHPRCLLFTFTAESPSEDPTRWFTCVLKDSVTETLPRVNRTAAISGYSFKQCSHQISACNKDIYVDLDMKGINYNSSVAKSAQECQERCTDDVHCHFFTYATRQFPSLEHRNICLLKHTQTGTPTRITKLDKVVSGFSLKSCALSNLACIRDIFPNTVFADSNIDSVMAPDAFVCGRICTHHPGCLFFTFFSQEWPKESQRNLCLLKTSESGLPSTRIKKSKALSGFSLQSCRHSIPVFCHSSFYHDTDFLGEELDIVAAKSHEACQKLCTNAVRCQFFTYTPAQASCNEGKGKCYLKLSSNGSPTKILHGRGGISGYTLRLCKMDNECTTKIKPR

T1 sequence (P03952 391-638 limits assumed): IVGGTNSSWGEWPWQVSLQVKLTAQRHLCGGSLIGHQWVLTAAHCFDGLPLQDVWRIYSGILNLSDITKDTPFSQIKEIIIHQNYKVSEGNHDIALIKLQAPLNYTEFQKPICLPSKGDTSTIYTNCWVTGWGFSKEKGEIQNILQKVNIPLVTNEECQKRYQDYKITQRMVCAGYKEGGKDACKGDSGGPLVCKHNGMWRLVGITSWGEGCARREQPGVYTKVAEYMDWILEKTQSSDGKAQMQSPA
T1 sequence (P03952 20-390 partner limits assumed): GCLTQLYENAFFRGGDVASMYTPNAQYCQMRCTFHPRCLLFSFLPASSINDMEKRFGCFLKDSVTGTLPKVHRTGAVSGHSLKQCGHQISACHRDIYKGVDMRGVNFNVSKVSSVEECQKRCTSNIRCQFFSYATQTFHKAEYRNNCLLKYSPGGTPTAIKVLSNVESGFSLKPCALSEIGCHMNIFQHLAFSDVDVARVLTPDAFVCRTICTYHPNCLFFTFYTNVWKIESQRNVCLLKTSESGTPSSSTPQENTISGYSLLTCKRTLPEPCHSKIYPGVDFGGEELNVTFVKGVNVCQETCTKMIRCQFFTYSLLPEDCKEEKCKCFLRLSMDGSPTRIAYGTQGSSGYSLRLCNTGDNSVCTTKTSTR

Row | SMILES | IC50 [1] | IC50 [2]
1 | CCCCC(O)(c1ccc(F)cc1)c1ncc(C(=O)N2CCC[C@@]3(C2)OC(=O)Nc2ccc(Cl)c(F)c23)[nH]1 (stereo partly drawn) [Example 81, (3′R)-6-Chloro-5-fluoro-1′-(2-(1-(4-fluorophenyl)-1-hydroxypentyl)-1H-imidazole-5-carbonyl)spiro[benzo[d][1.3]oxazine-4,3′-piperidin]-2(1H)-one] | 0.0087 µM | 2.3 µM
2 | O=C1Nc2ccc(Cl)c(F)c2[C@@]2(CCCN(C(=O)c3nnc(Cc4ccccc4)[nH]3)C2)O1 [Example 86, (R)-1′-(5-Benzyl-4H-1,2,4-triazole-3-carbonyl)-6-chloro-5-fluorospiro[benzo[d][1,3]oxazine-4,3′-piperidin]-2(1H)-one] | 0.0248 µM | 6.89 µM
3 | O=C1Nc2ccc(Cl)c(F)c2[C@@]2(CCCN(C(=O)c3nnc(C4(c5ccc(F)cc5)CCC4)[nH]3)C2)O1 [Example 88, (R)-6-Chloro-5-fluoro-1′-(5-(1-(4-fluorophenyl)cyclobutyl)-4H-1,2,4-triazole-3-carbonyl)spiro[benzo[d][1,3]oxazine-4,3′-piperidin]-2(1H)-one] | 0.0137 µM | 4.44 µM
4 | CC1(C)CN(C(=O)c2nnc(Cc3ccccc3)[nH]2)C[C@]2(C1)OC(=O)Nc1ccc(Cl)c(F)c12 [Example 89, (R)-1′-(5-Benzyl-4H-1,2,4-triazole-3-carbonyl)-6-chloro-5-fluoro-5′,5′-dimethylspiro[benzo[d][1,3]oxazine-4,3′-piperidin]-2(1H)-one] | 0.0149 µM | 7.2 µM
5 | CC(C)(c1ccccc1)c1nnc(C(=O)N2CCC[C@@]3(C2)OC(=O)Nc2ccc(Cl)c(F)c23)[nH]1 [Example 93, (R)-6-Chloro-5-fluoro-1′-(5-(2-phenylpropan-2-yl)-4H-1,2,4-triazole-3-carbonyl)spiro[benzo[d][1,3]oxazine-4,3′-piperidin]-2(1H)-one] | 0.0299 µM | 3.16 µM
6 | O=C1Nc2ccc(Cl)c(F)c2[C@@]2(CCCN(C(=O)c3nnc(C4(c5ccc(F)cc5)CCOCC4)[nH]3)C2)O1 [Example 94, (R)-6-Chloro-5-fluoro-1′-(5-(4-(4-fluorophenyl)tetrahydro-2H-pyran-4-yl)-4H-1,2,4-triazole-3-carbonyl)spiro[benzo[d][1,3]oxazine-4,3′-piperidin]-2(1H)-one] | 0.0056 µM | 2.49 µM

Now from value to compound:

Row | IC50 [1] | IC50 [2] | SMILES
7 | 0.0214 µM | 3.01 µM | CC1(C)CN(C(=O)c2nnc(C(C)(C)c3ccccc3)[nH]2)C[C@]2(C1)OC(=O)Nc1ccc(Cl)c(F)c12 [Example 95, (R)-6-Chloro-5-fluoro-5′,5′-dimethyl-1′-(5-(2-phenylpropan-2-yl)-4H-1,2,4-triazole-3-carbonyl)spiro[benzo[d][1,3]oxazine-4,3′-piperidin]-2(1H)-one]
8 | 0.0013 µM | 0.646 µM | CC[C@@H](c1cc(C)c2nc[nH]c2c1)c1n[nH]c(C(=O)N2CCC[C@@]3(C2)OC(=O)Nc2ccc(Cl)c(F)c23)n1 [Example 109, (R)-6-Chloro-5-fluoro-1′-(3-((S)-1-(4-methyl-1H-benzo[d]imidazol-6-yl)propyl)-TH-1,2,4-triazole-5-carbonyl)spiro[benzo[d][1,3]oxazine-4,3′-piperidin]-2(1H)-one]
9 | 0.001 µM | 1.22 µM | CC[C@H](c1cc(C)c2nc[nH]c2c1)c1n[nH]c(C(=O)N2CCC[C@@]3(C2)OC(=O)Nc2ccc(Cl)c(F)c23)n1 [Example 110, (R)-6-Chloro-5-fluoro-1′-(3-((R)-1-(4-methyl-1H-benzo[d]imidazol-6-yl)propyl)-1H-1,2,4-triazole-5-carbonyl)spiro[benzo[d][1.3]oxazine-4,3′-piperidin]-2(1H)-one]
10 | 0.0135 µM | 7.76 µM | Cc1cc(Cc2nnc(C(=O)N3CCC[C@@]4(C3)OC(=O)Nc3ccc(Cl)c(F)c34)[nH]2)cc2[nH]ncc12 [Example 124, (R)-6-Chloro-5-fluoro-1′-(5-((4-methyl-1H-indazol-6-yl)methyl)-4H-1,2,4-triazole-3-carbonyl)spiro[benzo[d][1,3]oxazine-4,3′-piperidin]-2(1H)-one]
11 | 0.0053 µM | 1.36 µM | COCC(c1ccccc1)c1n[nH]c(C(=O)N2CCC[C@@]3(C2)OC(=O)Nc2ccc(Cl)c(F)c23)n1 (stereo partly drawn) [Example 130, (4R)-6-Chloro-5-fluoro-1′-(3-(2-methoxy-1-phenylethyl)-1H-1,2,4-triazole-5-carbonyl)spiro[benzo[d][1,3]oxazine-4,3′-piperidin]-2(1H)-one]
